Experimental data as given in patent US8119675B2, “Benzimidazole derivatives” (Merck Patent GmbH, priority 2007, dated 2012).

Assays:
SGLT1 = biological target: T1, SGLT1 (Homo sapiens, UniProt P13866); test: 14C-AMG uptake in BHK cells transfected with SGLT1 (96-well cell-based assay); details: 50 μM AMG, 37° C., 90 min
T1 construct: expressed in transfected cells
T1 sequence (P13866 1-664): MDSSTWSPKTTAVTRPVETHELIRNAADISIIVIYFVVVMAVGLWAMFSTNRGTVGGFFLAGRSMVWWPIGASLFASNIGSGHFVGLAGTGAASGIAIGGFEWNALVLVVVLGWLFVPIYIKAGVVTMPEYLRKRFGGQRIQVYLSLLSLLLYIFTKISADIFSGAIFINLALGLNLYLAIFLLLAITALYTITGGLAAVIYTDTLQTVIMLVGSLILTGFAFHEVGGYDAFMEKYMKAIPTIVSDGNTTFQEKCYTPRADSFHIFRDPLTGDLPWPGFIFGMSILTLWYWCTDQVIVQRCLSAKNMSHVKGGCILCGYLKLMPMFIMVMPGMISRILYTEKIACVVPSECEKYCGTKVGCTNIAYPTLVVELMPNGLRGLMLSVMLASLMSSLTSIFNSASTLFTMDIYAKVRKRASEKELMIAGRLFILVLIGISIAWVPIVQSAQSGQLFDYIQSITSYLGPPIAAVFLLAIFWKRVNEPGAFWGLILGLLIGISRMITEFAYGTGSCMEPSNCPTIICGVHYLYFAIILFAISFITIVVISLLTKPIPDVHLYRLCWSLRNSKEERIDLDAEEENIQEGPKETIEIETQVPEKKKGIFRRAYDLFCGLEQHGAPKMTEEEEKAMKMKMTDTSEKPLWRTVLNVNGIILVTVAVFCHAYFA
Source text: (§1) The compounds can be tested for their SGLT inhibition properties by means of BHK cells expressing SGLT1 and SGLT2. The production of the cells and the testing can be carried out as described below.
To construct the SGLT1 expression vector (KL225), the SLC5A1 gene (homologous to NM_000343) was amplified from a cDNA library using standard PCR technology and cloned over NheI/XhoI sites into the pcDNA3.1 expression vector (Invitrogen) containing neomycin as a selection marker. In this vector, transcription uses the enhancer/promoter of human cytomegalovirus.
(§2) The final vector KL225 together with an additional vector containing a dihydrofolate reductase gene as a selection marker was introduced into cells. Transfection into BHK21 cells (ATCC CCL-10), cultivated in DMEM medium (GIBCO/BRL), supplemented with 10% foetal calf serum (FCS) and 20 mM glutamine, was carried out using calcium phosphate transfections according to Graham, F. L. and van der Ebb, A. J. (1973), Virology 52: 456 with 5-20 μg of uncut plasmids for 10^7 cells. Stable transfectants were selected in medium containing 1 mg/ml of G418 (GIBCO/BRL) and 20-5000 nM methotrexate as final concentration, where only cells which expressed the neomycin gene and overexpressed the dhfr gene were able to grow. After growth for 2-3 weeks, the cells were cloned (0.5 cells/well) and the clones were investigated for SGLT expression in radioactivity uptake tests.
(§3) The uptake of ^14C-α-methyl-D-glucopyranoside (AMG) in, for example, Xenopus oocytes injected with the corresponding cRNA has been described in principle (for example Wen-Sen Lee et al. (1994), J. Biol. Chem. 269, 12032-12039; Guofeng You et al. (1995), J. Biol. Chem. 270, 29365-29371).
(§4) A 96-well cell-based assay was developed and adapted to HTS requirements:
(§5) BHK cells (transfected with SGLT1 or SGLT2) were seeded into 96-well microtitre plates (Cultureplates, Perkin Elmer). After at least 24 h, medium was removed, and the cell layer was washed with assay buffer (140 mM NaCl, 2 mM KCl, 1 mM CaCl2, 1 mM MgCl2, 10 mM HEPES, 5 mM Tris, adjusted to pH 7.4 using 1 M KOH). After addition of 40 μl of assay buffer, 50 μl of AMG (50 μM for SGLT1 and 2 mM for SGLT2) in the presence or absence of compounds, the cells were incubated in a total volume of 100 μl at 37° C. for 90 min. Supernatant was removed by suction and discarded. Cells were washed and lysed by addition of 50 μl of water. After 10 min at room temperature, 200 μl of Micrsoscint 40 (Perkin Elmer) were added. The radioactivity was counted in a Topcount microplate scintillation counter (Perkin Elmer). The non-specific uptake was determined in sodium-free assay buffer (266 mM sucrose, 2 mM KCl, 1 mM CaCl2, 1 mM MgCl2, 10 mM HEPES, 5 mM Tris, adjusted to pH 7.4 using 1 M KOH).

SGLT2 = biological target: T2, SGLT2 (Homo sapiens, UniProt P31639); test: 14C-AMG uptake in BHK cells transfected with SGLT2 (96-well cell-based assay); details: 2 mM AMG, 37° C., 90 min
T2 construct: expressed in transfected cells
T2 sequence (P31639 1-672): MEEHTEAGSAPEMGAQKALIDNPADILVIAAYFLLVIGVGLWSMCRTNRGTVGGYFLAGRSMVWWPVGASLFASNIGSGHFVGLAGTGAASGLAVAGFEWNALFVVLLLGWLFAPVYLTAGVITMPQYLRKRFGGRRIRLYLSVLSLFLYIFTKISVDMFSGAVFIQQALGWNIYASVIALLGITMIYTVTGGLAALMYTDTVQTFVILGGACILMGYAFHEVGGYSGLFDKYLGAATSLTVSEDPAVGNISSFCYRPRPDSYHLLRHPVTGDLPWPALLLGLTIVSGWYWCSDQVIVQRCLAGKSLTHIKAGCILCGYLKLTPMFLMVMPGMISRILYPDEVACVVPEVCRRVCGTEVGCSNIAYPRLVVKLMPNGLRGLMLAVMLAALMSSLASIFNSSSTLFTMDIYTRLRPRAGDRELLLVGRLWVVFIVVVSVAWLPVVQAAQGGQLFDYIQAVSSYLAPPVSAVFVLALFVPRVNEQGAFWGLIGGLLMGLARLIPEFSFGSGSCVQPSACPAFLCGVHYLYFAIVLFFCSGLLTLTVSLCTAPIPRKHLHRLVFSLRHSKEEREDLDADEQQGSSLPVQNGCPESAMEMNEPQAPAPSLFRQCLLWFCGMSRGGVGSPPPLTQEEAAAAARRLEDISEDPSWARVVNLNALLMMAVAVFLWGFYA
Source text: as §1
To construct the SGLT2 expression vector (KL224), the SLC5A2 gene (homologous to NM_003041) was amplified from a cDNA library using standard PCR technology and cloned over NheI/XhoI sites into PCI-neo expression vector (Promega) containing neomycin as a selection marker. In this vector, transcription uses the enhancer/promoter of human cytomegalovirus and the SV40 polyadenylation signal.
as §2, with “KL224” for “KL225”
as §3, §4, §5

Compound	IC50 (SGLT1)	IC50 (SGLT2)	melting point
COc1cccc(OCC(N)=O)c1-c1nc2ccccc2n1Cc1c(C)cccc1C [Compound A15, 2-{2-[1-(2,6-Dimethylbenzyl)-1H-benzimidazol-2-yl]-3-methoxyphenoxy}acetamide]	> 10 µM	0.01 to 1 µM	–
Cc1cccc(C)c1Cn1c(-c2ccccc2OCC(N)=O)nc2ccc(F)c(F)c21 [Compound A29, 2-{2-[1-(2,6-Dimethylbenzyl)-6,7-difluoro-1H-benzimidazol-2-yl]phenoxy}acetamide]	> 10 µM	1 to 10 µM	–
NC(=O)COc1ccccc1-c1nc2ccccc2n1Cc1ccccc1 [Compound A8, 2-[2-(1-Benzyl-1H-benzimidazol-2-yl)phenoxy]-acetamide]	> 10 µM	> 10 µM	–
Cc1cccc(Cl)c1Cn1c(-c2ccccc2OCC(N)=O)nc2ccccc21 [Compound A22, 2-{2-[1-(2-Chloro-6-methylbenzyl)-1H-benzimidazol-2-yl]phenoxy}acetamide]	> 10 µM	1 to 10 µM	–
NC(=O)COc1ccccc1-c1nc2cc(F)ccc2n1Cc1c(Cl)cccc1Cl [Compound A19, 2-{2-[1-(2,6-Dichlorobenzyl)-5-fluoro-1H-benzimidazol-2-yl]phenoxy}acetamide]	> 10 µM	1 to 10 µM	–
Cc1ccc(-c2nc3ccccc3n2Cc2c(C)cccc2C)c(OCC(N)=O)c1 [Compound A14, 2-{2-[1-(2,6-Dimethylbenzyl)-1H-benzimidazol-2-yl]-5-methylphenoxy}acetamide]	> 10 µM	0.01 to 1 µM	–
NC(=O)COc1ccccc1-c1nc2cc(Cl)ccc2n1Cc1c(Cl)cccc1Cl [Compound A18, 2-{2-[5-Chloro-1-(2,6-dichlorobenzyl)-1H-benzimidazol-2-yl]phenoxy}acetamide]	> 10 µM	> 10 µM	–
COc1cc(C)c(-c2nc3ccc(F)cc3n2Cc2c(C)cccc2C)c(OCC(N)=O)c1 [Compound A1, 2-{2-[1-(2,6-dimethylbenzyl)-6-fluoro-1H-benzimidazol-2-yl]-5-methoxy-3-methylphenoxy}acetamide]	> 10 µM	0.01 to 1 µM	173 to 174 °C
COc1cc(C)c(-c2nc3cc(F)c(F)cc3n2Cc2c(C)cccc2C)c(OCC(N)=O)c1 [Compound A28, 2-{2-[1-(2,6-Dimethylbenzyl)-5,6-difluoro-1H-benzimidazol-2-yl]-5-methoxy-3-methylphenoxy}acetamide]	> 10 µM	1 to 10 µM	–
Cc1cccc(C)c1Cn1c(-c2ccccc2OC(CO)C(N)=O)nc2ccccc21 (stereo not drawn) [Compound A27, 2-{2-[1-(2,6-Dimethylbenzyl)-1H-benzimidazol-2-yl]phenoxy}-3-hydroxypropionamide]	> 10 µM	> 10 µM	–
